This is an account of results in patent US4977155A, “1,2,3-triazolo compounds” (priority 1988, dated 1990).

Converted amounts (≈) assume the structure as drawn. Where two headings read alike, the source gives them in different places.

Test [1] relates to NMDA stimulated ^3 H-GABA release from cultured mouse cortex neurons. As to the kind of experiment: Inhibition of NMDA stimulated 3H-GABA release from cultured mouse cerebral cortex interneurons (Test 3). Format: cell-based. As to conditions: Neuron, 3 μg/ml NMDA, read-out: Test 3 IC50 (inhibits 50% of NMDA induced 3H-GABA release). The source says:
The NMDA antagonistic properties of the compounds is illustrated by determining their capability to antagonize NMDA stimulated ^3 H-GABA release from cultured mouse cortex neurons.
The NMDA antagonistic activity of the compounds may be shown by determining the IC50 value, which represents the concentration (μg/ml) which inhibits 50% of NMDA induced ^3 H-GABA release.
Inhibition of NMDA stimulated ^3 H-GABA release from cultured mouse cerebral cortex interneurons (Test 3) Release experiments are performed using the model described by Drejer et al. (Life Sci. 38, 2077 (1986)). To cerebral cortex interneurons cultured in petri dishes (30 mm) are added 100 μg/ml 3-vinyl-GABA one hour before the experiment in order to inhibit degradation of GABA in the neurons. 30 min before the experiment 5 μCi ^3 H-GABA is added to each culture and after this preloading period the cells are washed twice with a HEPES (N-2 Hydroxyethylpiperazine-N'-2-ethanesulfonic acid) buffered saline (HBS) containing 10 mM HEPES, 135 mM NaCl, 5 mM KCl, 0.6 mM MgSO4, 1.0 mM CaCl2 and 6 mM D-glucose; pH 7 and placed in a superfusion system. This system consists of a peristaltic pump continuously delivering thermostated 37° C. superfusion medium from a reservoir to the top of a slightly-tilted petri dish. The cell monolayer at the bottom of the dish is covered with a piece of nylon mesh to facilitate dispersion of medium over the cell layer. The medium is continuously collected from the lower part of the dish and delivered to a fraction collector. Initially, the cells are superfused with HBS for 15 min (flow rate 2 ml/min). Then cells are stimulated for 30 sec every 4 min by changing the superfusion medium from HBS to a corresponding medium containing NMDA and antagonists according to the following scheme: […]
stimulation no. 1: 3 μg/ml NMDA stimulation no. 2: 3 μg/ml NMDA+0.3 μg/ml antagonist stimulation no. 3: 3 μg/ml NMDA+3 μg/ml antagonist
Test substances are dissolved in water or 48% ethanol. The final ethanol concentration in the assay must not exceed 0.1%.
The release of ^3 H-GABA in the presence of NMDA (stimulated relase in cpm) are corrected for the mean basal release (cpm) before and after the stimulation.
The stimulated release in the presence of antagonists are expressed relative to the stimulated release by NMDA alone and the IC50 value for the antagonist is calculated (the concentration (μg/ml) of the test substance which inhibits 50% of the NMDA induced ^3 H-GABA release) either from a dose response curve or from the formula: [formula] where Co is stimulated release in control assays and Cx is the stimulated release in the test assay (the calculation assumes normal mass-action interaction). 25-75% inhibition of the NMDA stimulation must be obtained, before calculation of IC50.

Test [2] concerns quisqualic acid stimulated Na^+ -efflux from rat striatal slices. The test can be described thus: Antagonism of quisqualic acid induced 22Na+ release (Test 2). Format: cell-based. As to conditions: rat striatum slices; quisqualic acid 2 μg/ml; read-out: Test 2 EC50 (reduces rate of quisqualic acid stimulated sodium efflux by 50%). As for the experimental part: The quisqualate antagonism is measured by determining the EC50 value which represents the concentration which reduces the rate of quisqualic acid stimulated sodium efflux by 50%.
Antagonism of quisqualic acid induced ^22 Na^+ -release (Test 2)
Slices from rat striatum were preincubated with ^22 Na^+ for 30 min. After the ^22 Na^+ loading period, the slices were successively and every minute transferred through a series of tubes, each containing 1.5 ml of a non-radioactive physiological solution saturated with O2, with the help of a basket shaped sieve. Quisqualic acid (2 μg/ml) was present in the last 5 tubes and the compound to be tested was present in the same 5 tubes plus 3 tubes before. The amount of radioactivity in each washout tube as well as that left in the slices at the end of the experiment was measured by scintillation counting. EC50 were calculated by Hill analysis from at least three different concentrations of test compound as the concentration of test compound which reduces the efflux rate of ^22 Na^+ -ions to 50% of the efflux rate in the absence of test compound.

Test [3] addresses quisqualate type receptors. As to the kind of experiment: 3H-AMPA binding (Test 1). The note with it: rat cerebral cortical membrane homogenate; 5 nM 3H-AMPA; 0° C., 30 min, pH 7.1. The text has this:
The quisqualate receptor binding activity of the compounds of the present invention can be illustrated by determining their capability for displacing radioactively labelled 2-amino-3-hydroxy-5-methyl-4-isoxazolepropionic acid (AMPA) from the quisqualate type receptors.
The displacement activity of the compounds may be shown by determining the IC50 value which represents the concentration (μg/ml) which causes a displacement of 50% of the specific binding of ^3 H-AMPA.
^3 H-AMPA binding (Test 1)
500 μl of thawed rat cerebral cortical membrane homogenate in Tris-HCl (30 mM), CaCl2 (2.5 mM) and KSCN (100 mM) pH 7.1 were incubated at 0° C. for 30 min. with 25 μl ^3 H-AMPA (5 nM final concentration) and the test compound and buffer. Non-specific binding was determined by incubation with L-glutamic acid (600 μM final concentration). The binding reaction was terminated by adding 5 ml of ice-cold buffer followed by filtration through Whatman GF/C glass fibre filters and 2×5 ml wash with ice-cold buffer. Bound radioactivity was measured by scintillation counting. IC50 was determined by Hill analysis of at least four concentrations of test compound.

A further test relates to Quisqualate receptors. As to conditions: in words, background; cited from earlier work.
Test [4] has as its system N-methyl-D-aspartate (NMDA) receptors. As to conditions: cited from earlier work.
The next test concerns kainate receptors. The note with it: in words, background; cited from earlier work.

Turning to `Cn1nnc2c([N+](=O)[O-])cc3nc(O)c(O)nc3c21` [Ex 6, 7,8-Dihydroxy-1-methyl-4-nitro-1H-1,2,3-triazolo[4,5-f]quinoxaline], the IC50 in test [1] was determined as 0.096 µg/mL (≈ 0.366 µM). Besides, in test [2], the EC50 came out at 4.1 µg/mL (≈ 15.6 µM). In addition, the “Test 1 IC50 (displacement of 50% of the specific binding of 3H-AMPA)” value in test [3] is 0,31 μg/ml.
With `N[C@@H](Cn1oc(=O)[nH]c1=O)C(=O)O` [quisqualic acid], the “agonist activity on quisqualate receptors” value in the test with Quisqualate receptors is given as “activated selectively”.
`O=[N+]([O-])c1cc2nc(O)c(O)nc2c2nonc12` [Ex 24, 7,8-Dihydroxy-4-nitro-l,2,5-oxadiazolo(3,4-f)quinoxaline]: in test [1], the IC50 was determined as 0.13 µg/mL (≈ 0.522 µM). The “Test 1 IC50 (displacement of 50% of the specific binding of 3H-AMPA)” value in test [3] is on record as 0,23 μg/ml.
As to `O=[N+]([O-])c1cc2nc(O)c(O)nc2c2scnc12` [Ex 17, 7,8-Dihydroxy-4-nitrothiazolo[5,4-f]quinoxaline], the “Test 1 IC50 (displacement of 50% of the specific binding of 3H-AMPA)” value in test [3] is reported as 0,21 μg/ml.
With `N[C@H](CCCCCP(=O)(O)O)C(=O)O` [D-APH, 2-amino-7-phosphonoheptanoic acid], in test [4] (in words, background), the “antagonist activity on NMDA receptors” value was “most potent and selective antagonists”.
Turning to `Cn1nnc2c3nc(O)c(O)nc3cc(C#N)c21` [Ex 15, 4-Cyano-7,8-dihydroxy-3-methyl-3H-1,2,3-triazolo[4,5-f]quinoxaline], the IC50 in test [1] was determined as 0.73 µg/mL (≈ 3.01 µM). Also, in test [3], the “Test 1 IC50 (displacement of 50% of the specific binding of 3H-AMPA)” value is reported as 0,19 μg/ml.
On the same counts, the results for `Cn1nc2c([N+](=O)[O-])cc3nc(O)c(O)nc3c2n1` [Ex 11, 7,8-Dihydroxy-2-methyl-4-nitro-2H-1,2,3-triazolo[4,5-f]quinoxaline] are 0.14 µg/mL (≈ 0.534 µM) and 0,36 μg/ml.
On to `O=[N+]([O-])c1cc2nc(O)c(O)nc2c2[nH]ncc12` [Ex 9, 7,8-Dihydroxy-4-nitro-1H-pyrazolo[3,4-f]quinoxaline], for which the IC50 in test [1] stood at 0.14 µg/mL (≈ 0.566 µM). Moreover, the “Test 1 IC50 (displacement of 50% of the specific binding of 3H-AMPA)” value in test [3] was 0,41 μg/ml.
Turning to `N[C@@H](CCC(=O)O)C(=O)O` [L-glutamic acid], the “agonist activity on quisqualate receptors” value in the test on Quisqualate receptors is “potent agonists”.
As for `N[C@H](CCCP(=O)(O)O)C(=O)O` [D-APV, 2-amino-5-phosphono-valeric acid], in test [4] (in words, background), the “antagonist activity on NMDA receptors” value was “most potent and selective antagonists”.
On to `Cc1nc2c([N+](=O)[O-])cc3nc(O)c(O)nc3c2nc1C` [Ex 36, 2,3-Dihydroxy-8,9-dimethyl-6-nitropyrazino(2,3-f)quinoxaline], for which the IC50 in test [1] was 0.14 µg/mL (≈ 0.487 µM). Further, the “Test 1 IC50 (displacement of 50% of the specific binding of 3H-AMPA)” value in test [3] was 0,39 μg/ml.
The matching figures for `Cn1nnc2c3nc(O)c(O)nc3cc([N+](=O)[O-])c21` [Ex 13, 7,8-Dihydroxy-3-methyl-4-nitro-3H-1,2,3-triazolo[4,5-f]quinoxaline]: 0.11 µg/mL (≈ 0.42 µM) and 0,07 μg/ml.
Regarding `CCOC(=O)CC[C@H](N)C(=O)OCC` [GDEE, Glutamic acid diethyl ester], the “antagonist activity on quisqualate receptors” value in the test on Quisqualate receptors is on record as “selective but very weak antagonist”.
As for `N[C@H](C(=O)O)c1cc(=O)[nH]o1` [Ibotenic acid], in test [4] (in words, background), the “agonist activity on NMDA receptors” value is recorded as “strong to moderate agonist activity”.
In the case of `N[C@H](CCC[C@H](N)C(=O)O)C(=O)O` [diaminopimelic acid], the “antagonist activity on NMDA receptors” value in test [4] (in words, background) is recorded as “moderate antagonist activity”.
Consider `Oc1nc2ccc3nn[nH]c3c2nc1O` [Ex 1, 7,8 Dihydroxy-1H-1,2,3-triazolo[4,5-f]quinoxaline], for which, in test [3], the “Test 1 IC50 (displacement of 50% of the specific binding of 3H-AMPA)” value was 13,3 μg/ml.
Regarding `N[C@H](CCC(=O)O)C(=O)O` [D-glutamic acid], the “agonist activity on NMDA receptors” value in test [4] is “strong to moderate agonist activity”.
With `O=[N+]([O-])c1cc2nc(O)c(O)nc2c2nsnc12` [Ex 38, 7,8-Dihydroxy-4-nitro-1,2,5-thiadiazolo(3,4-f)quinoxaline], the IC50 in test [1] was 0.09 µg/mL (≈ 0.339 µM). The “Test 1 IC50 (displacement of 50% of the specific binding of 3H-AMPA)” value in test [3] is 0,13 μg/ml.
In the case of `Cc1onc(O)c1CC(N)C(=O)O` (stereo not drawn) [AMPA, 2-amino-3-hydroxy-5-methyl-4-isoxazolepropionic acid], the “agonist activity on quisqualate receptors” value with Quisqualate receptors was “potent agonists”.
Regarding `N#Cc1cc2nc(O)c(O)nc2c2[nH]nnc12` [Ex 4, 4-Cyano-7,8-dihydroxy-1H-1,2,3-triazolo[4,5-f]quinoxaline], the “Test 1 IC50 (displacement of 50% of the specific binding of 3H-AMPA)” value in test [3] worked out at 10 µg/mL.
For `N[C@@H](CCC(=O)NCC(=O)O)C(=O)O` [3-glutamyl-glycine], in the test on kainate receptors, the “selectivity for kainate receptors” value was “some selectivity for kainate receptors”.
For the compound `N[C@@H](CCS(=O)(=O)O)C(=O)O` [L-homocysteic acid], in test [4] (in words, background), the “agonist activity on NMDA receptors” value is “strong to moderate agonist activity”.
Take `O=[N+]([O-])c1cc2nc(O)c(O)nc2c2nccnc12` [Ex 35, 2,3-Dihydroxy-6-nitropyrazino(2,3-f)quinoxaline]: the IC50 in test [1] was 0.1 µg/mL (≈ 0.386 µM). Further, in test [3], the “Test 1 IC50 (displacement of 50% of the specific binding of 3H-AMPA)” value is 0,39 μg/ml.
As to `N[C@H](CCCC(=O)O)C(=O)O` [D-2-amino-adipic acid], the “antagonist activity on NMDA receptors” value in test [4] (in words, background) is “moderate antagonist activity”.
Consider `Oc1nc2ccc3sccc3c2nc1O` [Ex 39, 2,3-Dihydroxythieno[3,2-f]quinoxaline], for which the “Test 1 IC50 (displacement of 50% of the specific binding of 3H-AMPA)” value in test [3] is 1,9 μg/ml.
Turning to `O=[N+]([O-])c1cc2nc(O)c(O)nc2c2[nH]nnc12` [Ex 2, 7,8-Dihydroxy-4-nitro-1H-1,2,3-triazolo[4,5-f]quinoxaline], in test [1], the IC50 came out at 0.26 µg/mL (≈ 1.05 µM). In addition, in test [2], the EC50 was 10 µg/mL (≈ 40.3 µM). Also, the “Test 1 IC50 (displacement of 50% of the specific binding of 3H-AMPA)” value in test [3] was 0,85 μg/ml.
`O=C(O)[C@@H]1CCCN[C@H]1C(=O)O` (relative stereo) [trans-2,3-PDA, trans-2,3-piperidine dicarboxylic acid]: the “agonist activity on NMDA receptors” value in test [4] (in words, background) is “strong to moderate agonist activity”.

As usually defined, the IC50 is the midpoint of a concentration-inhibition curve. One may read the EC50 as the concentration giving half of the maximal effect.
